Laboratory results published in patent US20250205265A1, “ASPERULOSIDE AS AN AGENT FOR IMPROVING VASCULAR AND METABOLIC FUNCTION IN OBESITY: ROLE OF NRF2 ACTIVATION” (The Chinese University of Hong Kong, priority 2023, published 2025).

Assays:
[1] = system: Nrf2/antioxidant responsive element (ARE); experiment: ARE binding activity, luciferase reporter assay in endothelial cells; assay type: cell-based; details: luciferase reporter assay
Description: (§1) After induction of obesity in C57BL/6 male mice fed with the high-fat diet for twelve weeks, they were treated daily with ASP (50 mg/kg) via oral gavage for seven weeks in vivo study. C57BL/6 mice aortae were used for ex vivo studies. Endothelial cells, HepG2 and primary adipocytes were used for in vitro studies. Vascular function was determined by wire myograph. H&E staining was employed for histological examination. Oil Red O staining was used to determine lipid droplets in tissues and cells. DHE and MitoSOX staining were used to detect ROS levels. QPCR, aortic en-face immunofluorescence staining, and Western blotting were used to analyze mRNA and protein expressions. ARE binding activity was determined by Dual luciferase reporter assay. Small interfering (si)RNA of Nrf2 and HO-1, inhibitors of Nrf2 (ML385, Cat. No.: HY-100523) and HO-1 (OB-24, HY-118487) were used to elucidate the mechanistic pathway of ASP's action.

Nrf2 = Nrf2 nuclear translocation in endothelial cells; assay type: cell-based; details: ML385 co-treatment; immunofluorescence and western blotting
Description: After induction of obesity in C57BL/6 male mice fed with high fat diet for twelve weeks, they were treated daily with ASP (50 mg/kg) via oral gavage for seven weeks in vivo study. C57BL/6 mice aortae were used for ex vivo study and endothelial cells were used for in vitro study. Vascular function was determined by wire myograph. DHE and MitoSOX staining were used to detect ROS levels. QPCR, aortic en-face immunofluorescence staining, and Western blotting were used to analyze mRNA and protein expressions. Small interfering (si)RNA of Nrf2 and HO-1, inhibitors of Nrf2 (ML385, Cat. No.: HY-100523) and HO-1 (OB-24, HY-118487) were used to elucidate the mechanistic pathway of ASP's action.
as §1

## Cc1ccccc1C(=O)N1CCc2cc(-c3nc(NC(=O)Cc4ccc5c(c4)OCO5)sc3C)ccc21 [ML385, reference compound]
[1]
  effect on activation of ARE binding by ASP: attenuates the activation of ARE binding by ASP
Nrf2
  effect on Nrf2 nuclear translocation stimulated by ASP: blocks Nrf2 nuclear translocation stimulated by ASP
